One assay deals with Adenosine A2A Receptor (Homo sapiens, UniProt P29274). Kind of assay: Activity assay of adenosine receptor modulators, Adenosine A2A Receptor (Table 1). The assay is classed as biochemical. The note with it: cAMP; read-out: A2AR cAMP IC50. On the procedure:
(§1) Compounds (e.g., adenosine receptor modulators) were tested for its biological activity. The assay results in Table 1 indicate (+ means >1 μM; ++ means 100 nM to 1 μM; +++ means <100 nM).

The next assay has as its target T1, A3R (Homo sapiens, UniProt P0DMS8).
T1 sequence (P0DMS8 1-318): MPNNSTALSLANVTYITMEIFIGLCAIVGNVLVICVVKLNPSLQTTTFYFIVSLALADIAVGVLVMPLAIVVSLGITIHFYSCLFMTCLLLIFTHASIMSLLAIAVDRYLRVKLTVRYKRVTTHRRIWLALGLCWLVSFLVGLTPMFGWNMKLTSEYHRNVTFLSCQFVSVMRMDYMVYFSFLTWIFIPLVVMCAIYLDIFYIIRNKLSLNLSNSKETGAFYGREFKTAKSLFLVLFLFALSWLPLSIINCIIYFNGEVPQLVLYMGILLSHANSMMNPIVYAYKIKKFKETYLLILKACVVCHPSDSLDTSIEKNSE
The experiment in a line: Activity assay of adenosine receptor modulators, A3R cAMP (Table 1). The assay is classed as cell-based. The procedure: as §1

The target in another assay is T2, A1R (Homo sapiens, UniProt P30542).
T2 sequence (P30542 1-326): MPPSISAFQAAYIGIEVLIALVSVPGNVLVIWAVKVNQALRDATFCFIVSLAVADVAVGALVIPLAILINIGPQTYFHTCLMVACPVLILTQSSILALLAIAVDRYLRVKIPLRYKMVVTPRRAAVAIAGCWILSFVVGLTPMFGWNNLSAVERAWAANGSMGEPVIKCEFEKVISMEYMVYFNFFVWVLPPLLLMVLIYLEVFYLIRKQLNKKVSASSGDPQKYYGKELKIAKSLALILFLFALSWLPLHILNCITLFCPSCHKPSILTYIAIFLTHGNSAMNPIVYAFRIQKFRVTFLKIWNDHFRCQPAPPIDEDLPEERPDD
Kind of assay: Activity assay of adenosine receptor modulators, A1R cAMP (Table 1). The assay is classed as cell-based. The procedure: as §1

Another assay has as its target T3, Adenosine A2B Receptor (Homo sapiens, UniProt P29275).
T3 sequence (P29275 1-332): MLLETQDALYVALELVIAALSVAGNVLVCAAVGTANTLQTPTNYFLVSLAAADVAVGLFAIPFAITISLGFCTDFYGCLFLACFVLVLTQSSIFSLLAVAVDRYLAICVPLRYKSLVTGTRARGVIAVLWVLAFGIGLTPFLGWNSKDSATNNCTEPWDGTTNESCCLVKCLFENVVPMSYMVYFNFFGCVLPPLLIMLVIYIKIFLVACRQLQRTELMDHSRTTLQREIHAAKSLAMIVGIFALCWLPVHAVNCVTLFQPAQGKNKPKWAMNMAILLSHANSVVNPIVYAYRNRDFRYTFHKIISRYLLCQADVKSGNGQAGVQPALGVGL
The experiment in a line: Activity assay of adenosine receptor modulators, Adenosine A2B Receptor (Table 1). The assay is classed as biochemical. The note with it: cAMP; read-out: A2BR cAMP IC50. On the procedure: as §1

Sequence of Adenosine A2A Receptor (P29274 whole entry): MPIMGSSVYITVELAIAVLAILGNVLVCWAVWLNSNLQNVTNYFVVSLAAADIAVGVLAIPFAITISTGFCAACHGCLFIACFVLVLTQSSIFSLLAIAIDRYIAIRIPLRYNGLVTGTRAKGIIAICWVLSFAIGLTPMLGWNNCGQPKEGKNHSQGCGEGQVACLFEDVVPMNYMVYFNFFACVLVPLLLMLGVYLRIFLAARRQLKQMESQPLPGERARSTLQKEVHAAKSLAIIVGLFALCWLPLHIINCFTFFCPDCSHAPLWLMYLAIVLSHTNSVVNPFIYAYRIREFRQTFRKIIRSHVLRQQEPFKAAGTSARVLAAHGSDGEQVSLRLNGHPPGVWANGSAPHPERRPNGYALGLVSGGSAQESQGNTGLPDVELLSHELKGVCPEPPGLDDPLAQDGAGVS

With `Cc1nc2nc(N[C@@H](C)c3cncc(F)c3)nc(C(=O)N3CC[C@@H](O)C3)c2s1` [Example 7, (5-(((S)-1-(5-Fluoropyridin-3-yl)ethyl)amino)-2-methylthiazolo[4,5-d]pyrimidin-7-yl)((R)-3-hydroxypyrrolidin-1-yl)methanone], the IC50 was 100 to 1000 nM on Adenosine A2A Receptor, above 1000 nM at A3R, above 1000 nM against A1R and below 100 nM at Adenosine A2B Receptor.

As to `Cc1nc2nc(N[C@@H](C)c3ccccn3)nc(C(=O)N3CCC3)c2s1` [Example 8, (S)-Azetidin-1-yl(2-methyl-5-((1-(pyridin-2-yl)ethyl)amino)thiazolo[4,5-d]pyrimidin-7-yl)methanone], the IC50 at Adenosine A2A Receptor is 100 to 1000 nM; against A3R, 100 to 1000 nM; against A1R it was above 1000 nM; at Adenosine A2B Receptor, below 100 nM.

`Cc1nc2nc(N[C@@H](C)c3ccccn3)nc(C(=O)N3CCCC3)c2s1` [Example 9, (S)-(2-Methyl-5-((1-(pyridin-2-yl)ethyl)amino)thiazolo[4,5-d]pyrimidin-7-yl)(pyrrolidin-1-yl)methanone]: the IC50 on Adenosine A2A Receptor was 100 to 1000 nM; against A3R it was 100 to 1000 nM; against A1R, above 1000 nM; at Adenosine A2B Receptor, below 100 nM.

Turning to `Cc1nc2nc(N[C@@H](C)c3cncc(F)c3)nc(C(=O)NCC3CCOCC3)c2s1` [Example 11, (S)-5-((1-(5-Fluoropyridin-3-yl)ethyl)amino)-2-methyl-N-((tetrahydro-2H-pyran-4-yl)methyl)thiazolo[4,5-d]pyrimidine-7-carboxamide], the IC50 at Adenosine A2A Receptor is 100 to 1000 nM; on A3R it was above 1000 nM; at A1R, 100 to 1000 nM; at Adenosine A2B Receptor, below 100 nM.

Regarding `Cc1nc2nc(N[C@@H](C)c3cccnc3)nc(C(=O)NC[C@@H](C)O)c2s1` [Example 12, N—((R)-2-Hydroxypropyl)-2-methyl-5-(((S)-1-(pyridin-3-yl)ethyl)amino)thiazolo[4,5-d]pyrimidine-7-carboxamide], the IC50 is above 1000 nM on Adenosine A2A Receptor, above 1000 nM at A3R, above 1000 nM at A1R and below 100 nM on Adenosine A2B Receptor.

`Cc1nc2nc(N[C@@H](C)c3cncc(F)c3)nc(C(=O)NC[C@@H]3CCOC3)c2s1` [Example 13, 5-(((S)-1-(5-Fluoropyridin-3-yl)ethyl)amino)-2-methyl-N—(((S)-tetrahydrofuran-3-yl)methyl)thiazolo[4,5-d]pyrimidine-7-carboxamide]: the IC50 is 100 to 1000 nM on Adenosine A2A Receptor, 100 to 1000 nM against A3R, 100 to 1000 nM at A1R and below 100 nM at Adenosine A2B Receptor.

Turning to `Cc1nc2nc(N[C@@H](C)c3cncc(F)c3)nc(C(=O)NC[C@H]3CCOC3)c2s1` [Example 14, 5-(((S)-1-(5-Fluoropyridin-3-yl)ethyl)amino)-2-methyl-N—(((R)-tetrahydrofuran-3-yl)methyl)thiazolo[4,5-d]pyrimidine-7-carboxamide], the IC50 at Adenosine A2A Receptor was above 1000 nM; at A3R, above 1000 nM; on A1R it was 100 to 1000 nM; on Adenosine A2B Receptor, below 100 nM.

On to `Cc1nc2nc(N[C@@H](C)c3cccnc3)nc(C(=O)NC[C@H](C)O)c2s1` [Example 15, N—((S)-2-Hydroxypropyl)-2-methyl-5-(((S)-1-(pyridin-3-yl)ethyl)amino)thiazolo[4,5-d]pyrimidine-7-carboxamide], for which the IC50 on Adenosine A2A Receptor is above 1000 nM; against A3R it was above 1000 nM; on A1R, above 1000 nM; at Adenosine A2B Receptor, below 100 nM.

As to `Cc1nc2nc(N[C@@H](C)c3cccnc3)nc(C(=O)N3CC[C@@H](O)C3)c2s1` [Example 16, ((R)-3-Hydroxypyrrolidin-1-yl)(2-methyl-5-(((S)-1-(pyridin-3-yl)ethyl)amino)thiazolo[4,5-d]pyrimidin-7-yl)methanone], the IC50 was above 1000 nM at Adenosine A2A Receptor, above 1000 nM against A3R, above 1000 nM at A1R and below 100 nM at Adenosine A2B Receptor.

Regarding `Cc1nc2nc(N[C@@H](C)c3ccccn3)nc(C(=O)N3CC[C@H](O)C3)c2s1` [Example 17, ((S)-3-Hydroxypyrrolidin-1-yl)(2-methyl-5-(((S)-1-(pyridin-2-yl)ethyl)amino)thiazolo[4,5-d]pyrimidin-7-yl)methanone], the IC50 on Adenosine A2A Receptor is above 1000 nM; at A3R it was above 1000 nM; against A1R, above 1000 nM; at Adenosine A2B Receptor, below 100 nM.

`Cc1nc2nc(N[C@@H](C)c3cccnc3)nc(C(=O)N3CC[C@H](O)C3)c2s1` [Example 18, ((S)-3-Hydroxypyrrolidin-1-yl)(2-methyl-5-(((S)-1-(pyridin-3-yl)ethyl)amino)thiazolo[4,5-d]pyrimidin-7-yl)methanone]: the IC50 at Adenosine A2A Receptor is above 1000 nM; against A3R it was above 1000 nM; against A1R, above 1000 nM; on Adenosine A2B Receptor, below 100 nM.

Turning to `Cc1nc2nc(N[C@@H](C)c3cncc(F)c3)nc(C(=O)NCCc3ccc(O)cc3)c2s1` [Example 21, (S)-5-((1-(5-Fluoropyridin-3-yl)ethyl)amino)-N-(4-hydroxyphenethyl)-2-methylthiazolo[4,5-d]pyrimidine-7-carboxamide], the IC50 is above 1000 nM on Adenosine A2A Receptor, above 1000 nM at A3R, above 1000 nM on A1R and below 100 nM on Adenosine A2B Receptor.

For the molecule `CC(=O)Nc1ccc(CCNC(=O)c2nc(N[C@@H](C)c3cncc(F)c3)nc3nc(C)sc23)cc1` [Example 24, (S)—N-(4-Acetamidophenethyl)-5-((1-(5-fluoropyridin-3-yl)ethyl)amino)-2-methylthiazolo[4,5-d]pyrimidine-7-carboxamide], the IC50 was above 1000 nM on Adenosine A2A Receptor, above 1000 nM at A3R, above 1000 nM against A1R and below 100 nM at Adenosine A2B Receptor.

As for `COCCNC(=O)c1nc(N[C@@H](C)c2cncc(F)c2)nc2nc(C)sc12` [Example 25, (S)-5-((1-(5-Fluoropyridin-3-yl)ethyl)amino)-N-(2-methoxyethyl)-2-methylthiazolo[4,5-d]pyrimidine-7-carboxamide], the IC50 at Adenosine A2A Receptor is 100 to 1000 nM; on A3R it was above 1000 nM; at A1R it was above 1000 nM; on Adenosine A2B Receptor, below 100 nM.

Turning to `CC(=O)NC1CN(C(=O)c2nc(N[C@@H](C)c3cncc(F)c3)nc3nc(C)sc23)C1` [Example 28, (S)—N-(1-(5-((1-(5-Fluoropyridin-3-yl)ethyl)amino)-2-methylthiazolo[4,5-d]pyrimidine-7-carbonyl)azetidin-3-yl)acetamide], the half-inhibitory concentration (IC50) on Adenosine A2A Receptor is 100 to 1000 nM; against A3R it was above 1000 nM; against A1R, above 1000 nM; at Adenosine A2B Receptor, below 100 nM.

For `CC(=O)N[C@H]1CCN(C(=O)c2nc(N[C@@H](C)c3cncc(F)c3)nc3nc(C)sc23)C1` [Example 29, N—((S)-1-(5-(((S)-1-(5-Fluoropyridin-3-yl)ethyl)amino)-2-methylthiazolo[4,5-d]pyrimidine-7-carbonyl)pyrrolidin-3-yl)acetamide], the IC50 is 100 to 1000 nM on Adenosine A2A Receptor, 100 to 1000 nM on A3R, above 1000 nM against A1R and below 100 nM at Adenosine A2B Receptor.

On to `CC(=O)N[C@@H]1CCN(C(=O)c2nc(N[C@@H](C)c3cncc(F)c3)nc3nc(C)sc23)C1` [Example 30, N—((R)-1-(5-(((S)-1-(5-Fluoropyridin-3-yl)ethyl)amino)-2-methylthiazolo[4,5-d]pyrimidine-7-carbonyl)pyrrolidin-3-yl)acetamide], for which the IC50 at Adenosine A2A Receptor is above 1000 nM; against A3R, above 1000 nM; against A1R it was above 1000 nM; on Adenosine A2B Receptor, 100 to 1000 nM.

Broadly, the IC50 is the midpoint of a concentration-inhibition curve.

Source of the values: US20200079793A1, “COMPOUNDS AND METHODS FOR MODULATING ADENOSINE A2B RECEPTOR AND ADENOSINE A2A RECEPTOR” (CORVUS PHARMACEUTICALS, INC., priority 2018, published 2020).
